Measured values reported in patent US20260191999A1, “COMPOUNDS AND THEIR USE” (KING'S COLLEGE LONDON, priority 2022, published 2026).

Tests used:
[1] = test system: HEK293-ALDH1A1 and HEK293-WT human embryonic kidney cells; assay: Cell uptake of radiotracer, HEK293-ALDH1A1 vs HEK293-WT; type: cell-based; settings: ALDH1A1 positive vs ALDH1A1 negative cell line
Protocol: HEK293 stably overexpressing ALDH1A1 were obtained by infecting cells with lentiviral particles containing the nucleotide sequences encoding for human ALDH1A1 (Origene RC200723L^4V LentiORF particles (mGFP-tagged)). Briefly, 1×10^4 HEK-293 cells were seeded into a 24-well plate and maintained for 24 hours at 37° C., 5% CO2. Cells were then infected with the lentiviral particles using a multiplicity of infection (MOI) of 10 in the presence of hexadimethrine bromide (6 μg/mL) (Sigma-Aldrich, St. Louis, MO, USA). The next day, medium was removed and replaced with fresh medium. At 36 h post-infection, medium was replaced with complete culture medium containing puromycin (1 μg/ml) which caused 100% cell death in non-transduced control cells after 5 days. Cells resistant to puromycin were subjected to clonal selection by the limiting dilution method. Overexpression of ALDH1A1 was confirmed by western blots and real-time PCR.
(§1) For cell uptake studies SKOV3-ip1 and SKOV3-TRip2, A549-WT, A549-KO-ALDH1A1, HEK293-WT and HEK293-ALDH1A1 cells were plated in 6 well plates 24 h prior to the studies, as described above (Western Blotting). One mL of fresh media containing 0.37 MBq of PQM-H-001 and 6 KBq PQM-H-002 was added to each well for the desired incubation time. At 40 min, plates were placed on ice, washed three times with ice-cold PBS to remove exogenous radioactivity and lysed in RIPA buffer ([…]; Fisher Scientific Ltd).
For all cell uptake and efflux study decay-corrected radioactivity in lysates was determined on a gamma counter ([…]; Wallac 1282 CompuGamma counter), with the remaining cell lysate centrifuged (21,000×g for 10 min at 4° C.) and the supernatant used to determine protein concentration following radioactive decay using a Pierce BCA assay. To quantify radiotracer uptake in cells, three standard solutions of the radioactivity-containing medium were counted on the gamma counter. Data were expressed as a percentage of total radioactivity administered to cells per mg of protein. […]

[2] = test system: A549-WT and A549-KO-ALDH1A1 human lung cancer cells; assay: Cell uptake of radiotracer, A549-WT vs A549-KO-ALDH1A1; type: cell-based; settings: ALDH1A1 positive vs ALDH1A1 negative cell line
Protocol: A549-KO-ALDH1A1 cells were obtained using an ALDH1A1 human gene knockout kit (Cat #KN400723) according to manufacturer's instructions (Origene, Rockville, MD, USA). Briefly, 3×10^5 A549 cells were seeded into a 6-well plate and maintained for 24 hours at 37° C., 5% CO2. Lipofectamine 3000 (Cat #L^3000, Invitrogen) was mixed with 1 μg of gRNA vector (pCas-guide) and 1 μg of donor template in Opti-MEM and added to cells for 16 hours. The next day, the transfection medium was removed and replaced with fresh medium. Forty-eight hours post-transfection, medium was replaced with fresh medium containing 0.5 μg/mL of puromycin (Cat #A1113803) which caused 100% cell death in non-transfected control cells after 5 days. Cells resistant to puromycin were subjected to clonal selection by the limiting dilution method. Knockout of protein was confirmed by western blots.
as §1
(§2) For all cell uptake and efflux study decay-corrected radioactivity in lysates was determined on a gamma counter ([…]; Wallac 1282 CompuGamma counter), with the remaining cell lysate centrifuged (21,000×g for 10 min at 4° C.) and the supernatant used to determine protein concentration following radioactive decay using a Pierce BCA assay. To quantify radiotracer uptake in cells, three standard solutions of the radioactivity-containing medium were counted on the gamma counter. Data were expressed as a percentage of total radioactivity administered to cells per mg of protein.
The following compounds were profiled in A549-WT (positive ALDH1A1) and A549-KO-ALDH1A1 (negative for ALDH1A1) human lung cancer cells as well as HEK293-WT (negative for ALDH1A1) and HEK293-ALDH1A1 (positive for ALDH1A1) human embryonic kidney cells. The fold difference in radiotracer retention for the ALDH1A1 positive cell lines as compared to the ALDH1A1 negative cell lines for each compound is shown in Table 2.

[3] = target: T1, human recombinant ALDH1A1 (Homo sapiens, UniProt P00352); assay: ALDH activity colorimetric assay (Biovision), ALDH1A1; type: biochemical; settings: Table 1, class symbols
T1 construct: purchased bio-techne
T1 sequence (P00352 1-501): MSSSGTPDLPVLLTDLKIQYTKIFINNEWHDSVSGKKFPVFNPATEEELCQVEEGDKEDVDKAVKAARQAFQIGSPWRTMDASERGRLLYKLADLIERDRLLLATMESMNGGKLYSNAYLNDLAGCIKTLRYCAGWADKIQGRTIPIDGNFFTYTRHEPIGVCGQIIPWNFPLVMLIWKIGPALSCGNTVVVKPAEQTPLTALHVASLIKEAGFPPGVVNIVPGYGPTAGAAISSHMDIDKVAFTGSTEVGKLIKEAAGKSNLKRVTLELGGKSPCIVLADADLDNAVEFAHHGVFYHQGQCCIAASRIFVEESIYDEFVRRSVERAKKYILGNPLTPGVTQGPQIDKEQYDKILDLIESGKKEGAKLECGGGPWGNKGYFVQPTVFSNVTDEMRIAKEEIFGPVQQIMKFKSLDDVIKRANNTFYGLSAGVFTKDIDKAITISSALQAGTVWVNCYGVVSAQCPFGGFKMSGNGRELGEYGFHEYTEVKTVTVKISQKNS
Protocol: ALDH substrate kinetics were measured using an ALDH activity colorimetric assay kit (Biovision) according to the manufacturer's instructions. 1 μg/well human recombinant ALDH1A1 (bio-techne), ALDH2 (abcam), or ALDH3A1 (ATGen Co., Ltd) were used. The assay was initiated by the addition of enzyme after all reagents were pre-warmed to 37° C. Plates were read in kinetic mode on a Multiskan FC plate reader (Thermo Scientific) at 450 nm over 40 min at 37° C.
The in vitro potency of the cold, non-radioactive reference compound compared against two different ALDH isoforms, ALDH1A1 and ALDH2 (using the ALDH activity colorimetric assay Kit (Biovision)).
Other reference compounds (PQM-C) were compared against ALDH1A1 (using the ALDH activity colorimetric assay Kit (Biovision)).

[4] = test system: SKOV3-TRip2 and SKOV3-ip1 cells; assay: Cell uptake of radiotracer, drug-resistant vs drug-sensitive SKOV3 cells; type: cell-based, human
Protocol: as §1, §2
Next, the time-dependent uptake of the of the radiotracers PQM-H-001 ([^18F]PQM-H-001) and PQM-H-002 ([^125I]PQM-H-002) was profiled in drug-resistant SKOV3-Trip2 and drug-sensitive SKOV3-ip1 cell lines (Pereira, R., et al. 2019).

Compound | IC50 [3] [nM] | further results
CS(=O)(=O)N1CCN(C(=O)c2cnc3c([125I])cccc3c2-c2ccc(C3(C#N)CC3)cc2)CC1 [PQM-H-017, 1-(4-(8-(fluoro-^125I)-3-(4-(methylsulfonyl)piperazine-1-carbonyl)quinolin-4-yl)phenyl)cyclopropane-1-carbonitrile] | – | fold difference in radiotracer retention, HEK293-ALDH1A1 vs. HEK293-WT [1]: 6 fold; fold difference in radiotracer retention, A549-WT vs A549-KO-ALDH1A1 [2]: 16 fold
CS(=O)(=O)N1CCN(C(=O)c2cnc3ccccc3c2-c2ccc(C3(C#N)CC3)c(I)c2)CC1 [PQM-C-022, 1-(2-Iodo-4-(3-(4-(methylsulfonyl)piperazine-1-carbonyl)quinolin-4-yl)phenyl)cyclopropane-1-carbonitrile] | 1000 to 10000 | –
CS(=O)(=O)N1CCN(C(=O)c2cnc3ccccc3c2N2CCC(C#N)(c3ccc(I)cc3)CC2)CC1 [PQM-C-027, 4-(4-iodophenyl)-1-(3-(4-(methylsulfonyl)piperazine-1-carbonyl)quinolin-4-yl)piperidine-4-carbonitrile] | 100 to 1000 | –
CS(=O)(=O)N1CCN(C(=O)c2cnc3ccc([125I])cc3c2-c2ccc(C3(C#N)CC3)cc2)CC1 [PQM-H-002, 1-(4-(6-(iodo-^125I)-3-(4-(methylsulfonyl)piperazine-1-carbonyl)quinolin-4-yl)phenyl)cyclopropane-1-carbonitrile] | – | fold difference in radiotracer retention, HEK293-ALDH1A1 vs. HEK293-WT [1]: 56 fold; Radiotracer retention, drug resistant versus drug-sensitive cells [4]: 200 times higher; fold difference in radiotracer retention, A549-WT vs A549-KO-ALDH1A1 [2]: 40 fold
CS(=O)(=O)N1CCN(C(=O)c2cnc3ccccc3c2-c2ccc(C3(C#N)CC3)c([125I])c2)CC1 [PQM-H-022, 1-(2-(fluoro-^125I)-4-(3-(4-(methylsulfonyl)piperazine-1-carbonyl)quinolin-4-yl)phenyl)cyclopropane-1-carbonitrile] | – | fold difference in radiotracer retention, A549-WT vs A549-KO-ALDH1A1 [2]: 6 fold
CS(=O)(=O)N1CCN(C(=O)c2cnc3cc(F)ccc3c2-c2ccc(C3(C#N)CC3)cc2)CC1 [PQM-C-011, 1-(4-(7-Fluoro-3-(4-(methylsulfonyl)piperazine-1-carbonyl)quinolin-4-yl)phenyl)cyclopropane-1-carbonitrile] | 10 to 100 | –
CS(=O)(=O)N1CCN(C(=O)c2cnc3c([N+](=O)[O-])cc([125I])cc3c2-c2ccc(C3(C#N)CC3)cc2)CC1 [PQM-H-007, 1-(4-(6-(iodo-^125I)-3-(4-(methylsulfonyl)piperazine-1-carbonyl)-8-nitroquinolin-4-yl)phenyl)cyclopropane-1-carbonitrile] | – | fold difference in radiotracer retention, HEK293-ALDH1A1 vs. HEK293-WT [1]: 2 fold; fold difference in radiotracer retention, A549-WT vs A549-KO-ALDH1A1 [2]: 17 fold
CS(=O)(=O)N1CCN(C(=O)c2cnc3c(F)cccc3c2-c2ccc(C3(C#N)CC3)cc2)CC1 [PQM-C-016, 1-(4-(8-Fluoro-3-(4-(methylsulfonyl)piperazine-1-carbonyl)quinolin-4-yl)phenyl)cyclopropane-1-carbonitrile] | 10 to 100 | –

Further lines, with some results ahead:

IC50 [3] [nM] | Compound | further results
10 to 100 | CS(=O)(=O)N1CCN(C(=O)c2cnc3c([N+](=O)[O-])cc(I)cc3c2-c2ccc(C3(C#N)CC3)cc2)CC1 [PQM-C-007, 1-(4-(6-Iodo-3-(4-(methylsulfonyl)piperazine-1-carbonyl)-8-nitroquinolin-4-yl)phenyl)cyclopropane-1-carbonitrile] | –
10 to 100 | CS(=O)(=O)N1CCN(C(=O)c2cnc3c([N+](=O)[O-])cc(F)cc3c2-c2ccc(C3(C#N)CC3)cc2)CC1 [PQM-C-006, 1-(4-(6-Fluoro-3-(4-(methylsulfonyl)piperazine-1-carbonyl)-8-nitroquinolin-4-yl)phenyl)cyclopropane-1-carbonitrile] | –
10 to 100 | CS(=O)(=O)N1CCN(C(=O)c2cnc3c(I)cccc3c2-c2ccc(C3(C#N)CC3)cc2)CC1 [PQM-C-017, 1-(4-(8-Iodo-3-(4-(methylsulfonyl)piperazine-1-carbonyl)quinolin-4-yl)phenyl)cyclopropane-1-carbonitrile] | –
≤ 10 | CS(=O)(=O)N1CCN(C(=O)c2cnc3ccccc3c2-c2ccc(C3(C#N)CC3)c(F)c2)CC1 [PQM-C-021] | –
10 to 100 | CS(=O)(=O)N1CCN(C(=O)c2cnc3cc(I)ccc3c2-c2ccc(C3(C#N)CC3)cc2)CC1 [PQM-C-012, 1-(4-(7-Iodo-3-(4-(methylsulfonyl)piperazine-1-carbonyl)quinolin-4-yl)phenyl)cyclopropane-1-carbonitrile] | –
≤ 10 | CS(=O)(=O)N1CCN(C(=O)c2cnc3ccccc3c2N2CCC(C#N)(c3ccc(F)cc3)CC2)CC1 [PQM-C-026, 4-(4-fluorophenyl)-1-(3-(4-(methylsulfonyl)piperazine-1-carbonyl)quinolin-4-yl)piperidine-4-carbonitrile] | –
